Patent publication US20220160680A1, “MICROORGANISM MIXTURES, MOLECULES DERIVED THEREFROM, AND METHODS OF USE THEREOF” (B. G. Negev Technologies and Applications Ltd., at …, priority 2018, published 2022)
“Also recorded” adds a separate entry of the source. Where two headings read alike, the source gives them in different places.

Tests used:
Vibrio cholerae MM920 = test: Quorum sensing bioluminescence reporter assay; format: cell-based; conditions: for IC50: Vibrio cholerae, read-out: IC50 of QS inhibition in V. cholera
Description: Bioluminescence assay was performed with mutant bacteria lacking the nucleotide sequences encoding the relevant autoinducers (AI). Additionally, the bacteria were cloned with bioluminescence reporter plasmids in order to measure their luminescence intensity when quorum sensing gene expression occurs. Ninety-six (96) well microtiter plate assays were used to assess AI activation (agonist) or inhibition (antagonist) of the following bacteria: Agrobacterium tumefaciens, which responds to the C8 autoinducer, and both Vibrio cholerae and Vibrio harveyi, which respond to the (S)-4,5-dihydroxy-2,3-pentanedione (DPD) autoinducer to communicate.
Agrobacterium tumefaciens A136 pCF218 pMV26 culture was grown in Luria-Bertani broth (LB; Miller's broth) supplemented with 25 μg/ml of kanamycin and 4.5 μg/ml of tetracycline at 28-30° C. for 24 h. Both Vibrio harveyi and Vibrio cholerae strains were grown in LB Broth (Lennox) supplemented with tetracycline at 30° C. for 24 h. The overnight cultures were diluted to an absorbance density (OD600) of 0.05 by fresh LB medium. The probiotic yogurt (e.g., kefir)-extracted molecules were tested at gradient concentration in two types of experiments: competition assay in the absence (activation/agonist) or presence (inhibition/antagonist) of 400 pM 3-oxo-C8-HSL (A. tumefaciens A136 pCF218 pMV26) CAI1 (Vibrio Cholerae MM920) 200 nM DPD (Vibrio harveyi MM30) and the OD600 of 0.05 by fresh LB medium. A clear bottom 96-well microliter plate was prepared with wells containing test compounds serially diluted into the LB medium (triplicates). A total of 100 μl of the diluted cells were added to each well. The control sample contained the bacteria and specific AI molecules without the yogurt extracted molecules. Luminescence was measured every 20 min for 19 h with continuous shaking at 30° C., using a Microtiter Plate Reader (Varioskan Flash, Thermo). Average luminescence values divided by OD600 values were plotted against the added compound concentration.
The effect of the Kefir biomass crude extract molecules on the following bacteria, A. tumefaciens A136, V. cholerae MM920 and V. harveyi MM30 were measured as described by Brenier et al. (2008). The overnight culture was diluted to an absorbance density (OD600) of 0.05 by fresh LB medium. A clear bottom 96-well microliter plate was prepared with wells containing test compounds serially diluted into the LB medium (triplicates). A total of 100 μL of the diluted cells was added to each well. The control sample contained the bacteria and specific autoinducer molecules without the kefir crude extracted molecules. Luminescence was measured every 20 min for 19 h with continuous shaking at 30° C., using a Microtiter Plate Reader (Varioskan Flash, Thermo). Two types of experiments were performed: a competition assay in the presence of 400 pM 3-oxo-C8-HSL (A. tumefaciens A136), CAI-1 (V. Cholerae MM920) 200 nM DPD (V. harveyi MM30) and the other in the absence of these AI's to measure agonistic activity of the crude extracted molecules. Average luminescence values divided by OD600 values were plotted against the added compound concentration.

Peritoneal macrophages = test: In vitro LPS stimulation of peritoneal macrophages, cytokine ELISA (24 hr); format: cell-based, mice; conditions: 100 μM, 0.1 μg/ml LPS
Description: Peritoneal macrophages were harvested using the protocol as described previously (Zhang et al., 2008). Elicited macrophages were harvested from WT mice which had received a 2.5 ml intraperitoneal administration of 3% Brewer thioglycolate broth (Sigma, UK) 72 hr prior collection.
Peritoneal macrophages cells (5×10^5/ml) were cultured with 0.1 μg/ml Lipopolysaccharides (LPS-Escherichia coli serotype 0127:B8, Sigma-Aldrich) and in the presence of 100 μM: tryptophol acetate, tyrosol acetate, dopamine HCl, caffeic acid, or combination of tryptophol acetate and tyrosol acetate, for 24 hr. Following culture, supernatants were collected and stored at −20° C. for the detection of the IL-6 cytokine. For IL-la detection, the inventors induced macrophages lysis by adding fresh RPMI medium and thawing three times.
IL-la and IL-6 levels were measured in peritoneal exudate fluids and LPS-stimulated culture supernatants by ELISA. To detect the cytokines, a R&D ELISA kit (Catalog #MLA00 and DY406, respectively) was used as per the manufacturer's instructions. A standard curve was constructed using serial dilutions of purified IL-la or IL-6 starting at a concentration of 15 ng/ml.

V. cholerae VC1 WT = test: RT-qPCR of QS genes; format: cell-based, Vibrio cholerae; conditions: 100 μM
Description: RNA was extracted from wild-type strain VC1 cultured in LB lennox medium supplemented with or without 100 μM Tryptophol acetate or Tyrosol acetate grown to an A600 of approximately 1.0OD using the RNA Protect Bacteria reagent and the RNeasy® Mini Kit (Qiagen, Valencia, Calif.) as per the manufacturer's instructions, including the on-column DNase I digestion described by the manufacturer. Purified RNA was quantified using a Banalyzer (Eppendorf, Hamburg, Germany). cDNA was synthesized from 1 μg of RNA using PrimeScript™ RT reagent kit (Takara, Ohtsu, Japan). The reaction was incubated at 37° C. for 30 min, and 2 μl of cDNA was subjected to RT-PCR analysis on an AB Step One Plus PCR system (Applied Biosystems, Carlsbad, Calif.), using qPCRBIO SyGreen Blue mix Hi-ROX (PCR Biosystems, London, UK). RT-PCR was performed in a 96-well plate (Bio-Rad) in triplicate in a 20 μl volume. The mdh gene was used as an endogenous loading control for the reactions. The amount of transcript was analyzed with StepOnePlus Software V2.3 (Applied Biosystems Carlsbad, Calif.). Mdh forward primer 5′-[…]-3′ (SEQ ID NO: 1); Mdh reverse primer 5′-[…]-3′ (SEQ ID NO: 2); vpsT forward primer 5′-[…]-3′ (SEQ ID NO: 3); vpsT reverse primer 5′-[…]-3′ (SEQ ID NO: 4); ctxA forward primer 5′-[…]-3′ (SEQ ID NO: 5); ctxA reverse primer 5′-[…]-3′ (SEQ ID NO: 6); aphA forward primer 5′-[…]-3′ (SEQ ID NO: 7); aphA reverse primer 5′-[…]-3′ (SEQ ID NO: 8). For Transcriptome libraries construction, we used the purified RNA as described in section Quantitative Real-time PCR (RT-PCR) Analysis. The ribosomal RNA was depleted using MICROBExpress kit (Invitrogen by Thermo Fisher Scientific, Lithuania). The libraries preparation was performed using SMARTer Standard RNA-Seq kit (Takara Bio, USA) according to manufacture instruction. High Throughput Sequencing Analysis was done by Illumina HiSeq 2500, SR 50 bp and barcode Raw data quality values phred+33. the amount and percentage of reads that passed the sequencer's automated quality filter, control mapping value, error rate, and per-base quality scores indicate that the sequencing was of high quality. Only a small percentage of reads were discarded due to trimming and the peak of the length distribution is at the original length of 51. The Software and applications that were used for comparison analyses are Library quality control: FASTQC version 0.11.5; Trim_galore (uses cutadapt version 1.10); Mapping: Tophat2 version 2.1.0 (uses Bowtie2 version 2.2.6); Gene counting: HTseq-count version 0.6.1. For normalization and differential expression analysis, DESeq2 R package version 1.18.1 Input files. The reference genome used in the analysis was of Vibrio cholerae O1 biovar El Tor str. N16961, from the following link: ftp://ftp.ncbi.nlm.nih.gov/genomes/all/GCF/000/006/745/GCF_000006745.1_ASM674v1. Counting was performed using an annotation file downloaded at the following link: ftp://ftp.ncbi.nlm.nih.gov/genomes/all/GCF/000/006/745/GCF_000006745.1_ASM674v1/G CF_000006745.1_ASM674v1_genomic.gtf.gz. All these files can be found in our FTP server, see section 4-Analysis result files.

amyloid beta (αβ1-42) = biological target: T1, amyloid beta (αβ1-42) (Homo sapiens, UniProt P05067); test: Thioflavin T (ThT) assay; format: biochemical; conditions: 30 μM amyloid beta, 12 hours of incubation
T1 construct: samples containing 30 μM amyloid beta [4(1-42)] in the absence or presence of tryptophol acetate
Description: ThT fluorescence measurements were taken at 37° C. using 96-well black plate on a Biotek Synergy H1 plate reader. Measurements were made on a samples containing 30 μM amyloid beta [4(1-42)] in the absence or presence of tryptophol acetate in different concentrations. A 120-μL aliquot of the aggregation reaction was mixed with 10 μM ThT in phosphate buffer (pH 7.4). The fluorescence intensity was measured every 30 min for 24 hr at λ excitation (λex)=440 and λ emission (λem)=485 nm.

T1 sequence (P05067 672-713 limits assumed): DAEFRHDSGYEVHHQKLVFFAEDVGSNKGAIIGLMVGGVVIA

Compound | IC50 (Vibrio cholerae MM920; high volume) [µM] | Effect on QS in V. cholera, high volume (Vibrio cholerae MM920; high volume) | Effect on QS in V. cholera, low volume (Vibrio cholerae MM920) | Production of IL-6 (Peritoneal macrophages) | Production of IL-la (Peritoneal macrophages) | aphA expression (V. cholerae VC1 WT; high cell density) | ctxA expression (V. cholerae VC1 WT; high cell density) | hapA expression (V. cholerae VC1 WT; high cell density) | hapR expression (V. cholerae VC1 WT; high cell density) | vpsT expression (V. cholerae VC1 WT; high cell density) | Amyloid beta fibrillation (ThT) (amyloid beta (αβ1-42)) | IC50 (Vibrio cholerae MM920) [µM] | Effect on QS in V. cholera, high volume (Vibrio cholerae MM920; high volume, listed as 180 molecule) | Effect on QS in V. cholera, low volume (Vibrio cholerae MM920; listed as 180 molecule) | QS-related genes' expression (V. cholerae VC1 WT)
CC(=O)OCCc1c[nH]c2ccccc12 [Tryptophol acetate] | 12.7 ± 2 | inhibits QS | activates QS | dramatically reduced | dramatically reduced | upregulation | significantly repressed | lower expression | significant downregulation | remarkable upregulation | effectively reduced amyloid beta fibrillation; also recorded: reduced αβ1-42 fibrillation |  |  |  | 
CC(=O)OCCc1ccc(O)cc1 [Tyrosol acetate] |  | totally inhibits QS | activates QS | dramatically reduced | dramatically reduced |  |  |  |  |  |  | 24.4 ± 2.4 | totally inhibited QS | activated QS | affect QS-related genes' expression
